Test system: primate pluripotent stem cell-derived cardiomyocytes
Test: Contractile activity of primate pluripotent stem cell-derived cardiomyocytes
Type: cell-based
Details: spontaneous periodic contractions in culture
Experimental: Under appropriate circumstances, primate pluripotent stem cell-derived cardiomyocytes often show spontaneous periodic contractile activity. This means that when they are cultured in a suitable tissue culture environment with an appropriate Ca^++ concentration and electrolyte balance, the cells can be observed to contract across one axis of the cell, and then release from contraction, without having to add any additional components to the culture medium. The contractions are periodic, which means that they repeat on a regular or irregular basis, at a frequency between ˜6 and 200 contractions per minute, and often between ˜20 and ˜90 contractions per minute in normal buffer (FIG. 2). Individual cells may show spontaneous periodic contractile activity on their own, or they may show spontaneous periodic contractile activity in concert with neighboring cells in a tissue, cell aggregate, or cultured cell mass.
The contractile activity of the cells can be characterized according to the influence of culture conditions on the nature and frequency of contractions. Compounds that reduce available Ca^++ concentration or otherwise interfere with transmembrane transport of Ca^++ often affect contractile activity. […] Further characterization of functional properties of the cell can involve characterizing channels for Na^+, K^+, and Ca^++. Electrophysiology can be studied by patch clamp analysis for cardiomyocyte like action potentials. See Igelmund et al., Pflugers Arch. 437:669, 1999; Wobus et al., Ann. N.Y. Acad. Sci. 27:752, 1995; and Doevendans et al., J. Mol. Cell Cardiol. 32:839, 2000.

Row | Compound | contractile activity | chronotropic effect
1 | COc1ccc([C@@H]2Sc3ccccc3N(CCN(C)C)C(=O)[C@@H]2OC(C)=O)cc1 [diltiazem] | inhibits contractile activity in a dose-dependent manner | 
2 | CC(C)NCC(O)c1ccc(O)c(O)c1 (stereo not drawn) [isoprenaline] |  | positive chronotropic effect
3 | CNC[C@H](O)c1cccc(O)c1 [phenylephrine] |  | positive chronotropic effect

Source: patent US9062289B2, “Differentiation of primate pluripotent stem cells to cardiomyocyte-lineage cells” (Asterias Biotherapeutics, Inc., priority 2005, dated 2015)
